{
  "source": "patent US9046516B2",
  "about": "“Immunoassay method, reagent kit for detecting alkaline phosphatase, and reagent kit for immunoassay” (SYSMEX CORPORATION, priority 2007, dated 2015)",
  "tested_on": "endogenous ALP",
  "experiment": "HBs antigen immunoassay with ALP label: luminescence intensity of samples, reduction of the influence of endogenous ALP",
  "type": "biochemical",
  "conditions": "particle dispersion with 2 mM levamisole",
  "protocol": "In this example, the effect of the inhibitor of endogenous ALP contained in the particle dispersion prepared in (4) above on reduction of the influence of endogenous ALP was examined.\nSpecifically, the reagents prepared in (1) to (5) above were used and the luminescence intensities of HBs antigen-negative samples were measured. The measurement method is described below.\nFirst, 25 μL sample was mixed with 30 μL of the HBs antibody reagent and then incubated at 42° C. for about 3 minutes, whereby an HBs antigen in the sample was reacted with the biotinylated HBs antibody in the HBs antibody reagent. Subsequently, 30 μL of the magnetic particle reagent was added to the mixture and then incubated for about 2 minutes, and a complex consisting of the HBs antigen and the biotinylated HBs antibody was immobilized on the ST magnetic particles. […] 50 μL of the particle dispersion was added to the ST magnetic particles from which the wash fluid had been removed, then the ST magnetic particles were dispersed in the particle dispersion, 100 μL of the substrate solution was added thereto, and the luminescence intensity of the sample was measured with LUMI-COUNTER 700 (Microtec Nichion). […]",
  "data": [
    {"molecule": "c1ccc([C@H]2CN3CCSC3=N2)cc1", "note": "[Levamisole, (−)-2,3,5,6-tetrahydro-6-phenylimidazo[1,2-b]thiazole]", "values": [
      {"measurement": "With Levamisole (Luminescence Intensity, Counts)", "setting": "negative control NC (0.1 M TEA buffer solution containing 5% BSA, pH 7.0)", "result": 705, "unit": "Counts"},
      {"measurement": "With Levamisole (Luminescence Intensity, Counts)", "setting": "positive control PC (HBs antigen-positive serum)", "result": 258759, "unit": "Counts"}
    ]}
  ]
}
